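Step 1: Grow cells in 96-well plates. Step 2: Expose to compound for 48 hours at 5 concentrations. Step 3: Interpolate endpoints linearly; if unreached, use highest concentration. TGI: total growth inhibition.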
Assays:
Assay in all cases: NCI-60 cell line screen, 48 h
A549 NSCLC = tested on: A549 NSCLC
ACHN renal = tested on: ACHN renal
CCRF-CEM leukemia = tested on: CCRF-CEM leukemia
COLO 205 colon = tested on: COLO 205 colon
DMS 114 small cell lung = tested on: DMS 114 small cell lung
DMS 273 small cell lung = tested on: DMS 273 small cell lung
EKVX NSCLC = tested on: EKVX NSCLC
HCC-2998 colon = tested on: HCC-2998 colon
HCT-116 colon = tested on: HCT-116 colon
HCT-15 colon = tested on: HCT-15 colon
HL-60(TB) leukemia = tested on: HL-60(TB) leukemia
HOP-18 NSCLC = tested on: HOP-18 NSCLC
HOP-62 NSCLC = tested on: HOP-62 NSCLC
HOP-92 NSCLC = tested on: HOP-92 NSCLC
HT29 colon = tested on: HT29 colon
IGROV1 ovarian = tested on: IGROV1 ovarian
K-562 leukemia = tested on: K-562 leukemia
KM12 colon = tested on: KM12 colon
KM20L2 colon = tested on: KM20L2 colon
LOX IMVI melanoma = tested on: LOX IMVI melanoma
LXFL 529 NSCLC = tested on: LXFL 529 NSCLC
M14 melanoma = tested on: M14 melanoma
M19-MEL melanoma = tested on: M19-MEL melanoma
MOLT-4 leukemia = tested on: MOLT-4 leukemia
NCI-H23 lung = tested on: NCI-H23 lung
NCI-H460 lung = tested on: NCI-H460 lung
OVCAR-3 ovarian = tested on: OVCAR-3 ovarian
OVCAR-4 ovarian = tested on: OVCAR-4 ovarian
OVCAR-5 ovarian = tested on: OVCAR-5 ovarian
OVCAR-8 ovarian = tested on: OVCAR-8 ovarian
RPMI-8226 leukemia = tested on: RPMI-8226 leukemia
RXF 393 renal = tested on: RXF 393 renal
SF-268 CNS = tested on: SF-268 CNS
SF-539 CNS = tested on: SF-539 CNS
SK-MEL-2 melanoma = tested on: SK-MEL-2 melanoma
SK-MEL-28 melanoma = tested on: SK-MEL-28 melanoma
SK-MEL-5 melanoma = tested on: SK-MEL-5 melanoma
SN12C renal = tested on: SN12C renal
SNB-19 CNS = tested on: SNB-19 CNS
SNB-75 CNS = tested on: SNB-75 CNS
SNB-78 CNS = tested on: SNB-78 CNS
SR leukemia = tested on: SR leukemia
SW-620 colon = tested on: SW-620 colon
TK-10 renal = tested on: TK-10 renal
U251 CNS = tested on: U251 CNS
UACC-257 melanoma = tested on: UACC-257 melanoma
UACC-62 melanoma = tested on: UACC-62 melanoma
UO-31 renal = tested on: UO-31 renal
786-0 renal = tested on: 786-0 renal
A498 renal = tested on: A498 renal
CAKI-1 renal = tested on: CAKI-1 renal
DLD-1 colon = tested on: DLD-1 colon
MALME-3M melanoma = tested on: MALME-3M melanoma
NCI-H226 lung = tested on: NCI-H226 lung
NCI-H522 lung = tested on: NCI-H522 lung
SF-295 CNS = tested on: SF-295 CNS
SK-OV-3 ovarian = tested on: SK-OV-3 ovarian

Structure (SMILES): Nc1cc(-c2ccccc2)nn1-c1nsc2ccccc12
- TGI (A549 NSCLC): > 100 µM
- TGI (ACHN renal): > 100 µM
- TGI (CCRF-CEM leukemia): 62.3 µM
- TGI (COLO 205 colon): > 100 µM
- TGI (DMS 114 small cell lung): > 100 µM
- TGI (DMS 273 small cell lung): > 100 µM
- TGI (EKVX NSCLC): > 100 µM
- TGI (HCC-2998 colon): > 100 µM
- TGI (HCT-116 colon): > 100 µM
- TGI (HCT-15 colon): > 100 µM
- TGI (HL-60(TB) leukemia): > 100 µM
- TGI (HOP-18 NSCLC): > 100 µM
- TGI (HOP-62 NSCLC): > 100 µM
- TGI (HOP-92 NSCLC): > 100 µM
- TGI (HT29 colon): > 100 µM
- TGI (IGROV1 ovarian): > 100 µM
- TGI (K-562 leukemia): > 100 µM
- TGI (KM12 colon): > 100 µM
- TGI (KM20L2 colon): > 100 µM
- TGI (LOX IMVI melanoma): > 100 µM
- TGI (LXFL 529 NSCLC): > 100 µM
- TGI (M14 melanoma): > 100 µM
- TGI (M19-MEL melanoma): > 100 µM
- TGI (MOLT-4 leukemia): > 100 µM
- TGI (NCI-H23 lung): > 100 µM
- TGI (NCI-H460 lung): > 100 µM
- TGI (OVCAR-3 ovarian): > 100 µM
- TGI (OVCAR-4 ovarian): > 100 µM
- TGI (OVCAR-5 ovarian): > 100 µM
- TGI (OVCAR-8 ovarian): > 100 µM
- TGI (RPMI-8226 leukemia): > 100 µM
- TGI (RXF 393 renal): 61.7 µM
- TGI (SF-268 CNS): > 100 µM
- TGI (SF-539 CNS): > 100 µM
- TGI (SK-MEL-2 melanoma): > 100 µM
- TGI (SK-MEL-28 melanoma): > 100 µM
- TGI (SK-MEL-5 melanoma): > 100 µM
- TGI (SN12C renal): > 100 µM
- TGI (SNB-19 CNS): > 100 µM
- TGI (SNB-75 CNS): 56.9 µM
- TGI (SNB-78 CNS): > 100 µM
- TGI (SR leukemia): > 100 µM
- TGI (SW-620 colon): > 100 µM
- TGI (TK-10 renal): > 100 µM
- TGI (U251 CNS): > 100 µM
- TGI (UACC-257 melanoma): > 100 µM
- TGI (UACC-62 melanoma): > 100 µM
- TGI (UO-31 renal): > 100 µM

Structure (SMILES): COc1ccc(C2[C@H]3C(=O)N(c4ccc(Cc5ccc(N6C(=O)[C@@H]7ON(c8ccccc8)C(c8ccc(OC)cc8)[C@@H]7C6=O)cc5)cc4)C(=O)[C@H]3ON2c2ccccc2)cc1 (some centres undefined)
- TGI (786-0 renal): > 100 µM
- TGI (A498 renal): > 100 µM
- TGI (A549 NSCLC): > 100 µM
- TGI (ACHN renal): > 100 µM
- TGI (CAKI-1 renal): > 100 µM
- TGI (CCRF-CEM leukemia): > 100 µM
- TGI (COLO 205 colon): > 100 µM
- TGI (DLD-1 colon): > 100 µM
- TGI (DMS 273 small cell lung): > 100 µM
- TGI (EKVX NSCLC): > 100 µM
- TGI (HCC-2998 colon): > 100 µM
- TGI (HCT-116 colon): > 100 µM
- TGI (HCT-15 colon): > 100 µM
- TGI (HL-60(TB) leukemia): > 100 µM
- TGI (HOP-18 NSCLC): > 100 µM
- TGI (HOP-62 NSCLC): > 100 µM
- TGI (HOP-92 NSCLC): > 100 µM
- TGI (HT29 colon): > 100 µM
- TGI (IGROV1 ovarian): > 100 µM
- TGI (K-562 leukemia): > 100 µM
- TGI (KM12 colon): > 100 µM
- TGI (KM20L2 colon): > 100 µM
- TGI (LOX IMVI melanoma): > 100 µM
- TGI (LXFL 529 NSCLC): > 100 µM
- TGI (M14 melanoma): 84.7 µM
- TGI (M19-MEL melanoma): > 100 µM
- TGI (MALME-3M melanoma): > 100 µM
- TGI (MOLT-4 leukemia): > 100 µM
- TGI (NCI-H226 lung): > 100 µM
- TGI (NCI-H23 lung): > 100 µM
- TGI (NCI-H460 lung): > 100 µM
- TGI (NCI-H522 lung): > 100 µM
- TGI (OVCAR-3 ovarian): > 100 µM
- TGI (OVCAR-4 ovarian): > 100 µM
- TGI (OVCAR-5 ovarian): > 100 µM
- TGI (OVCAR-8 ovarian): > 100 µM
- TGI (RPMI-8226 leukemia): > 100 µM
- TGI (RXF 393 renal): > 100 µM
- TGI (SF-268 CNS): > 100 µM
- TGI (SF-295 CNS): > 100 µM
- TGI (SF-539 CNS): > 100 µM
- TGI (SK-MEL-2 melanoma): > 100 µM
- TGI (SK-MEL-28 melanoma): > 100 µM
- TGI (SK-MEL-5 melanoma): > 100 µM
- TGI (SK-OV-3 ovarian): > 100 µM
- TGI (SN12C renal): > 100 µM
- TGI (SNB-19 CNS): > 100 µM
- TGI (SNB-75 CNS): > 100 µM
- TGI (SNB-78 CNS): > 100 µM
- TGI (SR leukemia): > 100 µM
- TGI (SW-620 colon): > 100 µM
- TGI (TK-10 renal): > 100 µM
- TGI (U251 CNS): > 100 µM
- TGI (UACC-257 melanoma): > 100 µM
- TGI (UACC-62 melanoma): > 100 µM
- TGI (UO-31 renal): > 100 µM
